Data from PMC10350920, “Development of a 2,4-Diaminothiazole Series for the Treatment of Human African Trypanosomiasis Highlights the Importance of Static–Cidal Screening of Analogues” (Journal of Medicinal Chemistry, 2023).
Where two headings read alike, the source gives them in different places.

Legend:
[1] = Mammalian cell counter screen (MRC-5); type: cell-based, human; conditions: human, MRC-5 fibroblasts; mean values; number of replicates in parentheses
Procedure: (§1) Drug sensitivity assays with BSF T. b. brucei “single marker” S427 and human MRC-5 fibroblasts were conducted as previously described.[43]

human MRC-5 fibroblasts = experiment: Mammalian cell counter screen (MRC-5); type: cell-based
Procedure: as §1

[2] = Mouse liver microsomal intrinsic clearance; type: in vitro ADME
In short: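 Compound (0.5 μM) incubated with liver microsomes (0.5 mg/mL, 50 mM potassium phosphate pH 7.4) and excess NADPH; samples quenched at 0–30 min and analysed by UPLC–MS/MS. Rate constant from exponential decay of compound/internal standard ratio; CLint scaled with 52.5 mg protein/g liver.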

TbGSK3 = test system: TbGSK3; design: method as in PMID 23776181; conditions: recombinant enzyme, previously established; cited from earlier work
[3] = test system: BSF T. b. brucei “single marker” S427; experiment: Drug sensitivity assay with bloodstream-form T. brucei; type: cell-based; conditions: Trypanosoma brucei; mean values; number of replicates in parentheses
Procedure: as §1

[4] = test system: Tb927.8.6290 overexpressing cell lines (A258P); experiment: Drug sensitivity, line overexpressing Tb927.8.6290 A258P; type: cell-based, T. b. brucei; conditions: for EC50: Trypanosoma brucei
Procedure: (§2) Drug sensitivity assays were carried out with BSF T. b. brucei “single marker” S427 or BSF T. b. brucei, Lister 427, MiTat 1.2, clone 221a 2T1 cells,[45] cells grown at 37 °C with 5% CO2 in an HMI-9T medium[46] as previously described.[47] 2T1 cells were initially maintained with 1 μg mL^–1 puromycin and 1 μg mL^–1 phleomycin prior to transfection or 2.5 μg mL^–1 hygromycin and 1 μg mL^–1 phleomycin after transfection. Induction of overexpression was achieved by the addition of 1 μg mL^–1 tetracycline to the culture medium.
(§3) The following primers were used to PCR amplify Tb927.8.6290 from genomic DNA isolated from wild-type and 38-resistant trypanosomes 5′-[…]-3′ (PacI site in bold) and 5′-[…]-3′ (BamHI site in bold). The PCR products (1272 bp) were then cloned into the pRPa plasmid.[53] The accuracy of the plasmid constructs was confirmed by in-house Sanger sequencing and then linearized with AscI prior to transfection. The linearized plasmids were introduced into 2T1 T. b. brucei cells following removal of puromycin from the media and selected with 2.5 μg mL^–1 hygromycin and 1 μg mL^–1 phleomycin. Two independent clones were selected for further studies.

[5] = test system: Tb927.8.6290 overexpressing cell lines (WT); experiment: Drug sensitivity, line overexpressing Tb927.8.6290 WT; type: cell-based, T. b. brucei; conditions: for EC50: Trypanosoma brucei
Procedure: as §2, §3

T. brucei RES I = experiment: Drug sensitivity, compound 38-resistant clone RES I; type: cell-based, T. b. brucei
Procedure: as §2
(§4) Compound-resistant cell lines were generated by subculturing a clone of T. brucei in the continuous presence of 38. Starting at sublethal concentrations, drug concentrations in two independent cultures were increased in a stepwise manner, usually 2-fold. When parasites were able to survive and grow in concentrations of drugs equivalent to more than 10 times the established EC50 value, the resulting cell lines were cloned by limiting dilution in the presence of the compound. Two clones (RES I-II) were selected for further biological study. A standard alkaline lysis protocol was used to isolate genomic DNA from compound-resistant bloodstream T. brucei parasites (∼1 × 10^8). Whole genome sequencing was performed using a DNB-seq next-generation sequencing platform (BGI, Hong Kong). Sequencing reads (150 bp) were aligned to the T. brucei TREU927 genome (v39; tritrypDB) using Bowtie2[48] and Samtools[49] software. […] Samtools and BCFtools[52] (mpileup) were used to call SNP and indels compared with the wild-type starter clone, where the overall quality score (QUAL) was >100. Artemis[50] was used to analyze chromosome and gene copy number variation, as well as visualization of SNPs.

T. brucei RES II = experiment: Drug sensitivity, compound 38-resistant clone RES II; type: cell-based, T. b. brucei
Procedure: as §2, §4

T. brucei wild-type = experiment: Drug sensitivity, wild-type parental line; type: cell-based, T. b. brucei; conditions: Trypanosoma brucei; weighted mean of ≥3 independent experiments
Procedure: as §2, §4

[6] = test system: Tb927.8.6290 overexpressing cell lines (V241F/A258V); experiment: Drug sensitivity, line overexpressing Tb927.8.6290 V241F/A258V; type: cell-based, T. b. brucei; conditions: for EC50: Trypanosoma brucei
Procedure: as §2, §3

[7] = relative to the parental wild-type, in brackets

| Structure (SMILES) | EC50 [1] | selectivity over MRC-5 cell line (human MRC-5 fibroblasts) | SI (human MRC-5 fibroblasts; selectivity index (EC50 MRC5/EC50 T. brucei)) | CLint (mouse) [2] | IC50 (TbGSK3) | EC50 [3] | EC50 ([4]; read-out: EC50, A258P +TET) | EC50 ([4]; read-out: EC50, A258P –TET) | fold shift, A258P ([4]; −TET vs +TET EC50, in brackets) | EC50 ([5]; read-out: EC50, WT +TET) | EC50 ([5]; read-out: EC50, WT –TET) | fold shift, WT ([5]; −TET vs +TET EC50, in brackets) | EC50 (T. brucei RES I; Trypanosoma brucei, read-out: EC50, RES I) | fold resistance, RES I (T. brucei RES I; [7]) | EC50 (T. brucei RES II; Trypanosoma brucei, read-out: EC50, RES II) | fold resistance, RES II (T. brucei RES II; [7]) | EC50 (T. brucei wild-type) | EC50 ([6]; read-out: EC50, V241F/A258V +TET) | EC50 ([6]; read-out: EC50, V241F/A258V –TET) | fold shift, V241F/A258V ([6]; −TET vs +TET EC50, in brackets) |
| --- | --- | --- | --- | --- | --- | --- | --- | --- | --- | --- | --- | --- | --- | --- | --- | --- | --- | --- | --- | --- |
| CC(C)(C)C(=O)c1sc(NC2CCCCC2)nc1N [Compound 1, 1-(4-Amino-2-(cyclohexylamino)thiazol-5-yl)-2,2-dimethylpropan-1-one] | > 50000 nM | ~200 fold | >100 | 2.5 mL·min/g | 12000 nM | 470 nM | – | – | – | – | – | – | – | – | – | – | – | – | – | – |
| Nc1nc(Nc2ccccc2)sc1C(=O)c1c(F)cccc1F [Compound 69, reference compound] | – | – | – | – | – | – | 1400 ± 35 nM | 200 ± 9 nM | 7 | 410 ± 19 nM | 170 ± 4 nM | 2 | 360 ± 16 nM | 2 | 390 ± 28 nM | 3 | 150 ± 3 nM | 1200 ± 51 nM | 180 ± 11 nM | 6 |
